Measured values from article PMC8535176, “Efficacy of epetraborole against Mycobacterium abscessus is increased with norvaline” (PLoS Pathogens, 2021).
Converted amounts (≈) assume the structure as drawn.

Experiments:
[1] = target: T1, M. tuberculosis LeuRS editing domain (LeuRSMtb; pMtbED) (Mycobacterium tuberculosis, UniProt P9WFV1); test: isothermal titration calorimetry; type: binding
T1 construct: gene leuS
Excerpt: isothermal titration calorimetry on M. tuberculosis LeuRS editing domain (LeuRSMtb; pMtbED)

[2] = target: T2, M. abscessus LeuRS editing domain (LeuRSMabs; pMabsED) (Mycobacteroides abscessus, UniProt B1MMK6); test: isothermal titration calorimetry; type: binding
T2 construct: gene leuS; editing domain, residues 303-499 (text on crystals prints 303-498); N-terminal His tag with TEV site, removed; synthetic codon-optimised gene, pET24a(+), E. coli BL21(DE3)
T2 sequence (B1MMK6 303-499): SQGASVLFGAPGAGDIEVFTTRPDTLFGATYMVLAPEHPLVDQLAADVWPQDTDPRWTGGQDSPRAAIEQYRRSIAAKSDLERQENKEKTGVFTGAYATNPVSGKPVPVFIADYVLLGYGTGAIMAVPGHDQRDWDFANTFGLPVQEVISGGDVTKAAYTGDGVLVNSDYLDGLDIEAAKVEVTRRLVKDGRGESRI
Excerpt: isothermal titration calorimetry on M. abscessus LeuRS editing domain (LeuRSMabs; pMabsED)

[3] = system: B. cereus; test: microbe, parasite or virus in culture; set-up: Whole-cell growth inhibition, dose-response MIC (MIC90) by resazurin microtiter assay (REMA), fluorescence read-out; details: Bacillus cereus, read-out: MIC (µg/mL) / EPT
[4] = system: C. glutamicum; test: microbe, parasite or virus in culture; set-up: Whole-cell growth inhibition, dose-response MIC (MIC90) by resazurin microtiter assay (REMA), fluorescence read-out; details: Corynebacterium glutamicum, read-out: MIC (µg/mL) / EPT
[5] = system: E. coli; test: microbe, parasite or virus in culture; set-up: Whole-cell growth inhibition, dose-response MIC (MIC90) by resazurin microtiter assay (REMA), fluorescence read-out; details: Escherichia coli, read-out: MIC (µg/mL) / EPT
[6] = system: M. abscessus; test: microbe, parasite or virus in culture; set-up: Whole-cell growth inhibition, dose-response MIC (MIC90) by resazurin microtiter assay (REMA), fluorescence read-out; details: Mycobacteroides abscessus, read-out: MIC (µg/mL) / EPT
[7] = system: M. avium hominissuis; test: microbe, parasite or virus in culture; set-up: Whole-cell growth inhibition, dose-response MIC (MIC90) by resazurin microtiter assay (REMA), fluorescence read-out; details: Mycobacterium avium, read-out: MIC (µg/mL) / EPT
[8] = system: M. avium intracellulaire; test: microbe, parasite or virus in culture; set-up: Whole-cell growth inhibition, dose-response MIC (MIC90) by resazurin microtiter assay (REMA), fluorescence read-out; details: Mycobacterium avium, read-out: MIC (µg/mL) / EPT
[9] = system: T3, M. tuberculosis Erdman; test: microbe, parasite or virus in culture; set-up: Whole-cell growth inhibition, dose-response MIC (MIC90) by resazurin microtiter assay (REMA), fluorescence read-out; details: Mycobacterium tuberculosis, ERDMAN, read-out: MIC (µg/mL) / EPT
T3 construct: Erdman

[10] = system: T4, M. tuberculosis H37Rv; test: microbe, parasite or virus in culture; set-up: Whole-cell growth inhibition, dose-response MIC (MIC90) by resazurin microtiter assay (REMA), fluorescence read-out; details: Mycobacterium tuberculosis, H37RV, read-out: MIC (µg/mL) / EPT
T4 construct: H37Rv

[11] = system: P. aeruginosa; test: microbe, parasite or virus in culture; set-up: Whole-cell growth inhibition, dose-response MIC (MIC90) by resazurin microtiter assay (REMA), fluorescence read-out; details: Pseudomonas aeruginosa, read-out: MIC (µg/mL) / EPT
[12] = system: T5, Mycobacteroides abscessus subsp. abscessus ATCC 19977; test: microbe, parasite or virus in culture; set-up: species or system M. abscessus; Resazurin microtiter assay (REMA), fluorescence; MIC at 90% growth inhibition from Gompertz fit; details: ATCC19977, 48 h, rough morphotype, read-out: MIC EPT
T5 construct: ATCC 19977
Description: (§1) MIC values were determined using the resazurin microtiter assay (REMA). Cultures were grown to log phase (OD600 of 0.4–0.8) and diluted to OD600 of 0.005. Drugs were prepared in two-fold serial dilutions in 96-well plates with 90 μL of bacteria per well to a final volume of 100 μL. Plates were incubated at 37°C until drug-free wells were turbid (2 days for M. abscessus). Ten μL of resazurin (0.025% wt/vol) was added to each well. Once the drug-free wells turned pink (one doubling time), the fluorescence (ex/em 560nm/590nm) was measured using an Infinite F200 Tecan plate reader. Fluorescence intensities were converted to % viable cells relative to drug-free conditions and fit to the Gompertz equation using GraphPad Prism version 9. MIC values at 90% growth inhibition were determined from the nonlinear regression Gompertz equation. Next, we tested the in vitro activity of EPT against a panel of M. abscessus clinical isolates belonging to the three subspecies of the M. abscessus complex (M. abscessus, M. massiliense, and M. bolletii) with smooth and rough colony morphologies and with different drug susceptibility profiles to various antibiotics. There was no loss in activity against clinical isolates (range of 0.014–0.046 μg/mL) nor different morphologies (S2 Table). To determine the spectrum of activity of EPT, we curated a panel of various mycobacteria and representative gram-positive and gram-negative bacteria. […] Mycobacteria strains were grown in rolling [compound left out] culture at 37°C in Middlebrook 7H9 (Difco) supplemented with 10% albumin dextrose catalase (ADC), 0.2% glycerol, and 0.05% Tween 80 (7H9 complete) or on 7H10 agar plates supplemented with 10% oleic acid ADC and 0.5% glycerol at 37°C. When mentioned, the carbon source was modified from glycerol to acetate or the detergent Tween 80 was removed from the media. Bacillus cereus (clinical isolate), Corynebacterium glutamicum (ATCC 13032), Escherichia coli, and Pseudomonas aeruginosa PAO1 were grown in LB broth. HepG2 cells (ATCC HB-8065) were grown in Dulbecco’s modified Eagle’s medium (DMEM) with phenol red (from Gibco) supplemented with 10% fetal bovine serum at 37°C with 5% CO2.

[13] = system: T6, Mycobacteroides abscessus subsp. abscessus MT16_1065; test: microbe, parasite or virus in culture; set-up: species or system M. abscessus; Resazurin microtiter assay (REMA), fluorescence; MIC at 90% growth inhibition from Gompertz fit; details: 48 h, smooth morphotype, read-out: MIC EPT
T6 construct: MT16_1065
Description: as §1

[14] = system: T7, Mycobacteroides abscessus subsp. abscessus MT16_6490; test: microbe, parasite or virus in culture; set-up: species or system M. abscessus; Resazurin microtiter assay (REMA), fluorescence; MIC at 90% growth inhibition from Gompertz fit; details: 48 h, smooth morphotype, read-out: MIC EPT
T7 construct: MT16_6490
Description: as §1

[15] = system: T8, Mycobacteroides abscessus subsp. bolletii AV; test: microbe, parasite or virus in culture; set-up: species or system M. abscessus; Resazurin microtiter assay (REMA), fluorescence; MIC at 90% growth inhibition from Gompertz fit; details: 48 h, smooth morphotype, read-out: MIC EPT
T8 construct: AV
Description: as §1

[16] = system: T9, Mycobacteroides abscessus subsp. bolletii Paris 167; test: microbe, parasite or virus in culture; set-up: species or system M. abscessus; Resazurin microtiter assay (REMA), fluorescence; MIC at 90% growth inhibition from Gompertz fit; details: 48 h, rough morphotype, read-out: MIC EPT
T9 construct: Paris 167
Description: as §1

[17] = system: T10, Mycobacteroides abscessus subsp. massiliense MT15_1748; test: microbe, parasite or virus in culture; set-up: species or system M. abscessus; Resazurin microtiter assay (REMA), fluorescence; MIC at 90% growth inhibition from Gompertz fit; details: 48 h, rough morphotype, read-out: MIC EPT
T10 construct: MT15_1748
Description: as §1

[18] = system: T11, Mycobacteroides abscessus subsp. massiliense MT15_1749; test: microbe, parasite or virus in culture; set-up: species or system M. abscessus; Resazurin microtiter assay (REMA), fluorescence; MIC at 90% growth inhibition from Gompertz fit; details: 48 h, rough morphotype, read-out: MIC EPT
T11 construct: MT15_1749
Description: as §1

T1 sequence (P9WFV1 311-512 limits assumed): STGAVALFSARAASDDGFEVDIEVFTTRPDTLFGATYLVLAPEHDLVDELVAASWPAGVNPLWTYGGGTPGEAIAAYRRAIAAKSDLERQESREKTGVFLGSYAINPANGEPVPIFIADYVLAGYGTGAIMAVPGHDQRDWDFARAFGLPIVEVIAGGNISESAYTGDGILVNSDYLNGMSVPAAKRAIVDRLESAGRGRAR

## NC[C@H]1OB(O)c2c(OCCCO)cccc21 [epetraborole]
[1]
  Kd: 10 ± 4 µM
[2]
  Kd: 16 ± 4 µM
[3]
  MIC: > 2.7 µg/mL
[4]
  MIC: 2 µg/mL (≈ 8.44 µM)
[5]
  MIC: 5.7 µg/mL (≈ 24 µM)
[6]
  MIC: 0.063 µg/mL (≈ 0.266 µM)
[7]
  MIC: 2.7 µg/mL (≈ 11.4 µM)
[8]
  MIC: 2.7 µg/mL (≈ 11.4 µM)
[9]
  MIC: 0.19 µg/mL (≈ 0.801 µM)
[10]
  MIC: 0.46 µg/mL (≈ 1.94 µM)
[11]
  MIC: > 2.7 µg/mL
[12]
  MIC: 0.11 µg/mL (≈ 0.464 µM)
[13]
  MIC: 0.041 µg/mL (≈ 0.173 µM)
[14]
  MIC: 0.03 µg/mL (≈ 0.127 µM)
[15]
  MIC: 0.046 µg/mL (≈ 0.194 µM)
[16]
  MIC: 0.027 µg/mL (≈ 0.114 µM)
[17]
  MIC: 0.022 µg/mL (≈ 0.0928 µM)
[18]
  MIC: 0.014 µg/mL (≈ 0.0591 µM)
